Results reported in patent US4866161A, “Inhibition of tartar deposition by polyanionic/hydrophobic peptides and derivatives thereof which have a clustered block copolymer structure” (University of South Alabama, priority 1987, dated 1989).
Where two headings read alike, the source gives them in different places. One block for each compound: values may come before it. Ends that are not written are not given here.

How the values were obtained:
[1] = pH-drift assay, calcium carbonate
Experimental: A solution supersaturated with respect to CaCO03 is prepared by separately pipetting 0.3 ml of 1.0 M CaCl2 dihydrate and 0.6 ml of 0.5 M NaHCO3 into 29.1 ml of artificial seawater (0.5 NaCl, 0.011 M KCl). The reaction vessel is a 50 ml, 3-necked, round-bottom flask partially immersed in a thermostated water bath at 20° C. The reaction vessel is closed to the atmosphere to minimize exchange of CO2 The reaction is started by adjusting the pH upward to 8.3 by titration of μl amounts of 1 N NaOH by digital pipette. The initial concentrations are 10 mM each of Ca^2+ and dissolved inorganic carbon (DIC). The reaction is monitored by pH electrode and recorded by strip chart.
The reaction may be quantified by calculations based on DIC equilibria to give the amount of precipitation versus time.
The conditions of the assay were […] dissolved inorganic carbon at 20° C. and 30 ml of artificial seawater (0.5 M NaCl, 0.01 M KCl).

[2] = constant composition assay, CaCO3; conditions: FIG. 5, pH 8.30 held constant, 20° C., doses matched for about 2 hours stabilization
Experimental: A 50 ml solution of 10 mM CaCl2 and 10 mM dissolved inorganic carbon (DIC) was adjusted to pH 8.34 by digital pipetting of μl amounts of 1 N NaOH. The temperature was held constant at 20° C. using a water-jacketed reaction vessel and a thermostated bath. After about a 6 minute period during which CaCO3 nucleation occurs, the pH beings to drift downward as Ca^2+ and CO3^2- ions are removed from solution as solid crystals. At pH 8.30, inhibitors were added which stabilized the pH drift for certain periods of time. The concentrations of inhibitors used in the experiments shown in FIG. 5 were matched so that the amount of stabilization or inhibition of nucleation was the same, in this case about 2 hours. The doses required for this effect ranged between 0.1 to 0.5 μg/ml of inhibitor depending on the type When crystallization began again, the pH would drift downward. However, it was held constant at pH 8.30±0.02 by automatic titration of 0.5 M CaCl2 and 0.5 M NaCO3 from separate burettes linked via the pH electrode to a computer-assisted titrimeter.

[3] = pH-drift assay, calcium phosphate
Experimental: A solution supersaturated with respect to calcium phosphate is prepared by separately pipetting 0.1 ml of 1.32 M CaCl2 dihydrate and 0.1 ml of 0.90 M NaHl PO4 into 29.8 ml of distilled water. This yields initial concentrations of 4.4 mM Ca^2+ and 3.0 mM dissolved inorganic phosphorus (DIP). The reaction vessel is a 50 ml, round-bottom, 3-necked flask partially immersed in a thermostated water bath at 20° C. The reaction vessel is closed to the atmosphere. The reaction begins upon mixing the reactants with an initial pH of 7.4.
Amorphous calcium phosphate (ACP) nucleates immediately and slowly grows as indicated by a slight decrease in pH during the first 30 minutes or so of the assay. Following this, ACP begins to transform to calcium hydroxylapatite (HAP), Ca10 (PO4)6 (OH)2, as indicated by a marked acceleration in the downward pH drift. The reaction ceases as reactants are depleted and the pH is lowered.
^1 Assay Conditions: Ca at 4.4 mM, dissolved inorganic phosphorus at […]

[4] = inhibitor 37 μg/ml; adapted from Hay et al. 1979; cited from earlier work

Compound: H--(ALA)10 (ASP)15 --OH
CRYSTAL GROWTH RATE ([1]; peptide 0.050 μg/ml): 0.042 ± 0.0039 pH/MIN
INDUCTION PERIOD ([1]; peptide 0.050 μg/ml): 32.0 ± 10.4 min

Compound: Polyaspartate [matrix analog]
rate of crystallization after the period of stabilization [2]: not observed

Compound: AAAAAAGDGDGDGDGDGDGD [H--(ALA)6 --(GLY-13 ASP)7 --OH, poly (Asp-Gly)7 (Ala)6]
inhibition of crystal nucleation (duration of induction period), in words ([1]; FIG. 6, equal doses, artificial seawater, 20° C.): very little activity relative to the control curve
CRYSTAL GROWTH RATE ([1]; peptide 0.20 μg/ml): 0.048 ± 0.0042 pH/MIN
INDUCTION PERIOD ([1]; peptide 0.20 μg/ml): 7.2 ± 0.83 min

inhibitory activity on CaCO3 crystallization, comparison of Table 1 in words ([1]; Table 1): decreased activity
Compound: AAAAAAAAAADDDDDDDDDD [H--(Ala)10 --(Asp)10 --OH]

Compound: SDSDSDSDSDSDSDSDSDSD [H--(SER--ASP)10 --OH]
CRYSTAL GROWTH RATE ([1]; peptide 0.1 μg/ml): 0.048 ± 0.0040 pH/MIN
INDUCTION PERIOD ([1]; peptide 0.1 μg/ml): 29.8 ± 4.99 min

Compound: Polyaspartate [Polyaspartate, MW 15,000]
pH/min, ACP FORMATION ([3]; inhibitor 10 μg/ml): 0.0040 pH/min
pH/min, APATITE FORMATION ([3]; inhibitor 10 μg/ml): 0.106 pH/min
PERIOD OF ACP FORMATION ([3]; inhibitor 10 μg/ml, Ca 4.4 mM, DIP 3.0 mM, initial pH 7.40, 20° C.): 30 min
PERIOD OF ACP FORMATION ([3]; inhibitor 15 μg/ml): 48 min
pH/min, ACP FORMATION ([3]; inhibitor 15 μg/ml): 0.0050 pH/min
pH/min, APATITE FORMATION ([3]; inhibitor 15 μg/ml): 0.070 pH/min

Compound: GDGDGDGDGDGDGDGDGDGD [H--(GLY--ASP)10 --OH]
CRYSTAL GROWTH RATE ([1]; peptide 0.1 μg/ml): 0.047 ± 0.0097 pH/MIN
INDUCTION PERIOD ([1]; peptide 0.1 μg/ml): 36.0 ± 5.20 min

Compound: DDDDDDDDDDDDDDDDDDDD [H--(ASP)20--OH, poly (Asp)20]
CRYSTAL GROWTH RATE ([1]; peptide 0.02 μg/ml): 0.047 ± 0.0030 pH/MIN
INDUCTION PERIOD ([1]; peptide 0.02 μg/ml): 21.5 ± 0.50 min
CRYSTAL GROWTH RATE ([1]; peptide 0.035 μg/ml): 0.041 ± 0.0050 pH/MIN
INDUCTION PERIOD ([1]; peptide 0.035 μg/ml): 39.2 ± 10.8 min
INDUCTION PERIOD ([1]; peptide 0.050 μg/ml): > 180 min

Compound: Statherin: salivary protein, most effective inhibitor among salivary proteins that regulate mineral deposition in the oral cavity (DSSEEKFLRRIGRFGYGYGPYQPVPEQPLYPQPYQPQYQQYTF; UniProt P02808 20-62, looked up)
PERIOD OF ACP FORMATION [4]: 48 min
pH/min, ACP FORMATION [4]: 0.0045 pH/min
pH/min, APATITE FORMATION [4]: 0.0090 pH/min

Compound: GSDGSDGSDGSDGSDGSDGSD [H--(GLY--SER--ASP)7 --OH]
CRYSTAL GROWTH RATE ([1]; peptide 0.1 μg/ml): 0.057 ± 0.0034 pH/MIN
INDUCTION PERIOD ([1]; peptide 0.1 μg/ml): 5.83 ± 1.04 min

Compound: O=P(O)(O)CN(CCN(CP(=O)(O)O)CP(=O)(O)O)CCN(CP(=O)(O)O)CP(=O)(O)O [DENTPP, diethylene triamine pentamethylene phosphonic acid]
PERIOD OF ACP FORMATION ([3]; inhibitor 5 μg/ml): 100 min
pH/min, ACP FORMATION ([3]; inhibitor 5 μg/ml): 0.0012 pH/min
pH/min, APATITE FORMATION ([3]; inhibitor 5 μg/ml): 0.019 pH/min
